Our source for the IC50, specific internalization and binding to albumin values is paper PMC10647616, “Side-Chain Modified [^99mTc]Tc-DT1 Mimics: A Comparative Study in NTS1R-Positive Models” (International Journal of Molecular Sciences, 2023).

Series [1] has as its target T1, human NTS1R (Homo sapiens, UniProt P30989).
T1 construct: freshly prepared membrane homogenates of human colon adenocarcinoma WiDr cells; endogenous in cells; host or cells: WiDr human colon adenocarcinoma cells (membrane homogenates)
The series is described as follows: Competition binding against [125I]I-Tyr3-NT in WiDr cell membrane homogenates. The settings on record: WiDr cell membranes, 1 h at 22 °C, mean ± sd; read-out: IC50, [125I]I-Tyr3-NT displacement from NTS1R binding sites. The procedure:
Aliquots of the cell membrane homogenates from WiDr cells (collected and stored at −80 °C in Tris/EDTA:10 mM of Tris, 0.1 mM of EDTA, pH 7.4) were thawed, combined and diluted in cold BB. In RIA tubes in triplicate, the test peptide (30 µL) of each concentration point, radioligand (70 µL) and membrane homogenate (200 µL) were consecutively added and thoroughly vortexed. Samples were placed for 1 h in the Incubator-Orbital Shaker (MPM Instr. Srl; Bernareggio, Italy) at 22 °C under constant steering. […] The samples were aspirated, and individual filters corresponding to each tube were collected in separate plastic tubes and measured for radioactivity on the γ-counter. Inhibition curves were plotted and the half maximal inhibitory concentration (IC50) values were calculated by applying a nonlinear one-site model (GraphPad Prism—6 Software, San Diego, CA, USA). The results for each compound are given as the average IC50 values ± sd of at least three independent repetitions of the experiment performed in triplicate.

The subject of series [2] is AsPC-1 cells. The series is described as follows: Time-dependent radioligand internalization in AsPC-1 cells. The series is classed as cell-based, human. Conditions: 37 °C, at 1 h, non-specific (1 μM NT) subtracted. As to the method: The time-dependent internalization of [^99mTc]Tc-DT10/11/12 was directly compared with [^99mTc]Tc-DT1 via incubation in AsPC-1 cells at 37 °C for 15 min, 30 min, 1 h and 2 h. The cells were seeded in 6-well plates (1 × 10^6 per well) and left in the incubator overnight. The next day, the cells were washed twice with ice-cold internalization medium (IM, RPMI supplemented with 1% FBS). The plates were placed on the bench and the following solutions were successively added per well: warm IM (1200 µL at 37 °C), radioligand (250 fmol in 150 µL of IM) and either IM (150 µL; 3 upper wells: total series) or NT (10^−5 M in IM, 3 bottom wells: non-specific series). The plates were placed in the incubator at 37 °C and, at the predetermined time points, were retrieved and placed on ice. […] The three fractions collected per well in separate RIA tubes (supernatant, MB and internalized) were measured for their radioactivity content on the γ-counter. The radioactivity of each fraction was then assessed as a percentage of the initial activity added per well. By subtracting the non-specific fractions from the respective total fractions, the specific MB and internalization fractions could be determined. […] The results were expressed as mean ± sd.

For series [3], the target named is albumin (Bos taurus, UniProt P02769). The format is in vitro ADME, bovine. As to the method: The binding of the new [^99mTc]Tc-DT10/11/12 and the [^99mTc]Tc-DT1 reference to albumin was compared via the incubation of radioligands in BSA-treated 6-well plates. Accordingly, HEPES-buffered saline (150 mM of NaCl, 20 mM of HEPES, pH 7.4) supplemented with 0.5% w/v BSA (1200 µL of HBS-BSA) was added to each well, followed by the radioligand (250 fmol peptide, in 150 µL of HBS) and either HBS-BSA (150 µL, total binding) or Ibuprofen (22.2 mg/mL in HBS, 150 µL), to reach a total final volume of 1.5 mL. The plates were incubated in triplicate at 37 °C for 30 min in the incubator. Next, the supernatants were discarded and the wells were treated with 1 M NaOH (2 × 600 µL). The lysates were combined and collected in RIA tubes for radioactivity measurement on the γ-counter. Binding to albumin was calculated as a percentage of the measured activity vs. the activity originally added per well. The experiments were performed at least three times in triplicate and the results represent the average binding to albumin ± sd.

Residues, ends and D or L forms follow the SMILES beside them. *: point of attachment. N4 = 6-(carboxy)-1,4,8,11-tetraazaundecane chelator, NCCNCC(CNCCN)C(=O)*; Butanoyl(4-(4-MePh)) = Cc1ccc(CCCC(=O)*)cc1; X1 = NCCNCC(CNCCN)C(=O)* A value given as a limit tells only on which side of the number the result lay.

As a reminder, the IC50 is the concentration that gives 50% inhibition.

T1 sequence (P30989 whole entry): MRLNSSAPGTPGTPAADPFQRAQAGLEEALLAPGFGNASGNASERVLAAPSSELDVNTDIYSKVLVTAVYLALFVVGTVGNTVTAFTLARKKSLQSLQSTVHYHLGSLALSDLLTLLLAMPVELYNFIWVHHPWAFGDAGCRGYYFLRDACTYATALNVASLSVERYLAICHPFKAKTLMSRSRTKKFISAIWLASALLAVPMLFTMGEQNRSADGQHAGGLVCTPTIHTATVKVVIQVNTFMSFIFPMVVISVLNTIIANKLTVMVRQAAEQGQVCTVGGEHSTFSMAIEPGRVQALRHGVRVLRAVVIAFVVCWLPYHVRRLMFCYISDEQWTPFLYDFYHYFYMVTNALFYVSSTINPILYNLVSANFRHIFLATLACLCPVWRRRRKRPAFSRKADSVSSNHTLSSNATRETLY
Chain of albumin (P02769 25-607): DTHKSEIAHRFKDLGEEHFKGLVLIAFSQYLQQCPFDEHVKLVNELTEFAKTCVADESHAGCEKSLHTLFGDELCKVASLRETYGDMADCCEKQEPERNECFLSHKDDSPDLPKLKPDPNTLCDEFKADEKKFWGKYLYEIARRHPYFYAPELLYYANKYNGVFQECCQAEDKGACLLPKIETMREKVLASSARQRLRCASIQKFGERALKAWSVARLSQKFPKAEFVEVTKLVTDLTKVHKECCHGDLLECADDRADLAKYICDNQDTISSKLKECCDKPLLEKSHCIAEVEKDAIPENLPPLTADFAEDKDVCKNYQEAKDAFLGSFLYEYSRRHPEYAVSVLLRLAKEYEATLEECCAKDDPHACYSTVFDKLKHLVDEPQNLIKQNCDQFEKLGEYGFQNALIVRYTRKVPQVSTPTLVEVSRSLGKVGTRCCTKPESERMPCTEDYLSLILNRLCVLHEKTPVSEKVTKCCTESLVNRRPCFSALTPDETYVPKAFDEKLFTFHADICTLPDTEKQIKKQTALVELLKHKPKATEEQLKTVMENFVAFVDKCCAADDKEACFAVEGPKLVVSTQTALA

Regarding `CC[C@H](C)[C@H](NC(=O)[C@H](Cc1ccc(O)cc1)NC(=O)[C@@H]1CCCN1C(=O)[C@H](CCCNC(=N)N)NC(=O)[C@H](CCCNC(=N)N)NC(=O)CNC(=O)C(CNCCN)CNCCN)C(=O)N[C@@H](CC(C)C)C(=O)O` [DT1, N4-Gly-Arg-Arg-Pro-Tyr-Ile-Leu-OH] (X1-GRRPYIL-OH), the IC50 in series [1] worked out at 0.14 ± 0.01 nM.

Regarding `CC[C@H](C)[C@H](NC(=O)[C@H](Cc1ccc(O)cc1)NC(=O)[C@@H]1CCCN1C(=O)[C@H](CCCNC(=N)N)NC(=O)[C@H](CCCNC(=N)N)NC(=O)[C@H](CCCCNC(=O)CCCc1ccc(C)cc1)NC(=O)C(CNCCN)CNCCN)C(=O)N[C@@H](CC(C)C)C(=O)O` [DT10] (X1-K(Butanoyl(4-(4-MePh)))RRPYIL-OH), the IC50 in series [1] amounted to 0.06 ± 0.03 nM.

Take “[^99mTc]Tc-DT1: Tc-99m labeled DT1 (N4-Gly-Arg-Arg-Pro-Tyr-Ile-Leu-OH), unmodified reference radioligand (N4-GRRPYIL-OH; also: 99mTc complexed by N4 chelator)”: the specific internalization in series [2] is reported as 15.1 ± 2.3%. The compound further registered a binding to albumin in series [3] of under 1.0%.
